Laboratory results taken from patent US8242146B2, “Combination of a NSAID and a PDE-4 inhibitor” (Nycomed GmbH, priority 2002, dated 2012).

Experiments:
[1] = molecular target: partially purified or recombinant PDE4; assay: Inhibition of phosphodiesterase 4 in vitro; type: biochemical
[2] = molecular target: partially purified or recombinant PDE5 (Homo sapiens, UniProt O76074); assay: Inhibition of phosphodiesterase 5 in vitro; type: biochemical
[3] = test system: isolated guinea pig Langendorff hearts; assay: Isolated guinea pig Langendorff heart
[4] = Diclofenac induced blood loss in mice (fecal hemoglobin); type: in vivo; settings: male, NMRI, mouse, feces, oral; mice, 3-100 mg/kg p.o., spectrophotometric determination of fecal hemoglobin; read-out: ED50 of induced gastrointestinal bleeding
Description: (§1) Male NMRI mice (Charles River Laboratories, Sulzfeld, Germany) weighting 23-25 g were housed in groups of 5 under standard conditions at a temperature of 22° C.+/−2° C. and a 12 h light-dark cycle. If not otherwise stated animals had free access to tap water and standard food pellets. Diclofenac was administrated at doses from 1-100 mg/kg p.o.; rolipram, roflumliast and RP73401 were given at doses from 1-100 mg/kg p.o. Preventive treatment: Diclofenac was given at time point 0 h. At time points −24, −16, 0 h, +7 h one of the selective PDE4 inhibitors was administered. Curative treatment: Diclofenac was given at time point 0 h. At time points +1 h and +7 h one of the selective PDE4 inhibitors was administered. The drugs used were dissolved in 4% aqueous methyl cellulose. The animals were food reduced 24 h prior diclofenac administration. For each experiment 5 animals were used for one experimental point. Following 24 h administration of drugs animals were weighted and stool was collected quantitatively and homogenized as described below:
(§2) The modified method of Welch (Clin. Chem. 29/12, 2022-2025, 1983) was used. The amount of hemoglobin was determined by the heme catalyzed oxidation of tolidine in the presence of hydrogen peroxide. Feces was homogenized in destined water in a concentration with 1 g feces/6.6 ml H20 with an ultra-turrax (IKA-Werke, Germany). 500 μl aliquots from two different areas of the stool were taken to minimize error due to inhomogenous distribution of blood in the feces and heated 10 min at 95° C. to inactivate peroxidases and than diluted with 500 μl of acetic acid/H20 (30/70 vol/vol). Hemoglobin was extracted in 2.5 ml of acetic acid/H20 (30/70 vol/vol) by the addition of 4.5 ml ethyl acetate. The sample was rigorously shacked and the supernatant was used following a centrifugation step for optical detection of hemoglobin. Tolidine was prepared freshly from a stock solution (0.4 g tolidine in 10 ml ethanol) by mixing equal volumes of stock solution, H20 and acetic acid and equilibrated at room temperature. 20 μl of extracted supernatant was diluted to 100 μl ethyl acetate in a 96er crystal plate and incubated with 50 μl of the working solution. The reaction was initiated by the injection of 25 μl hydrogen peroxide (6%) in a Wallac Victor spectro-photometer (Turku, Finnland). The increase of OD 690 was monitored by a kinetic analysis and expressed as ΔOD690/min.

Male NMRI mice [5] = assay: Indomethacin induced blood loss in mice (fecal hemoglobin); type: in vivo; settings: NSAID 30 mg/kg indomethacin; PDE4 inhibitor 100 mg/kg p.o., curative
Description: as §1, with “Diclofenac was administrated at doses from 1-100 mg/kg p.o.; rolipram, roflumliast and RP73401 were given at doses from 1-100 mg/kg p.o. Preventive treatment: Diclofenac was given at time point 0 h.” left out, “Curative treatment: Diclofenac was given at time point 0 h.” left out
The modified method of Welch (Clin. Chem. 29/12, 2022-2025, 1983) was used. The amount of hemoglobin was determined by the heme catalyzed oxidation of tolidine in the presence of hydrogen peroxide. Feces was homogenized in destined water in a concentration with 1 g feces/6.6 ml H20 with an ultra-turrax (IKA-Werke, Germany). […] The increase of OD 690 was monitored by a kinetic analysis and expressed as ΔOD690/min.

Male NMRI mice [6] = assay: Diclofenac induced blood loss in mice (fecal hemoglobin); type: in vivo; settings: for % reduction of ΔOD690/min: NSAID 100 mg/kg diclofenac
Description: as §1, §2

Row | SMILES | IC50 [1] [µM] | PDE4 activity (in words) [1] | IC50 PDE5 [2] [µM] | PDE5 activity (in words) [2] | further results
1 | CC(=O)Oc1ccccc1C(=O)O [ASS, 2-(acetyloxy)benzoic acid] | > 100 | only minor effects | >100 | only minor effects | 
2 | CS(=O)(=O)Nc1cc2c(cc1Oc1ccc(F)cc1F)C(=O)CC2 [CGP28238, 6-(2,4-difluorophenoxy)-5-methylsulfonylamino-1-indanone] | 23 | in the μM range | 14 | in the μM range | 
3 | Cc1ccc(-c2cc(C(F)(F)F)nn2-c2ccc(S(N)(=O)=O)cc2)cc1 [Celecoxib, 4-[5-(4-methylphenyl)-3-(tri-fluoromethyl)-1H-pyrazol-1-yl]benzenesulfonamide] | 6 | in the μM range |  | in the μM range | heart rate [3]: no effect; left ventricular pressure [3]: no effect; coronary heart flow ([3]; doses consistent with inhibitory potency on PDE4 and 5): selectively increased
4 | O=C(O)Cc1ccccc1Nc1c(Cl)cccc1Cl [Diclofenac, 2-[(2,6-dichlorophenyl)amino]benzeneacetic acid] | > 100 | only minor effects | >100 | only minor effects | ED50 at 24 h [4]: 56 mg/kg
5 | COc1ccc2c(c1)c(CC(=O)O)c(C)n2C(=O)c1ccc(Cl)cc1 [Indometacin, 1-(4-chlorobenzoyl)-5-methoxy-2-methyl-1H-indole-3-acetic acid] | ~100 | only minor effects | 62 | only minor effects | 
6 | CS(=O)(=O)Nc1cc2c(cc1Sc1ccc(F)cc1F)C(=O)CC2 [L-745337, 5-methanesulfonamido-6-(2,4-difluorophenylthio)-1-indanone] | 31 | in the μM range | 24 | in the μM range | 
7 | CS(=O)(=O)Nc1ccc([N+](=O)[O-])cc1Oc1ccccc1 [Nimesulide, 4′-nitro-2′-phenoxymethansulfonamide] | 58 | in the μM range | 25 | in the μM range | 
8 | COc1ccc(C(=O)Nc2c(Cl)cncc2Cl)cc1OC1CCCC1 [RP73401] |  |  |  |  | % reduction of ΔOD690/min (Male NMRI mice [5]): 96%
9 | O=C(Nc1c(Cl)cncc1Cl)c1ccc(OC(F)F)c(OCC2CC2)c1 [Roflumilast, 3-Cyclopropylmethoxy-4-difluoromethoxy-N-(3,5-dichloropyrid-4-yl)-benzamide] |  |  |  |  | % reduction of ΔOD690/min (Male NMRI mice [6]; PDE4 inhibitor 3 mg/kg p.o., curative): 95%; % reduction of ΔOD690/min (Male NMRI mice [6]; PDE4 inhibitor 10 mg/kg p.o., preventive): 95%
10 | COc1ccc(C2CNC(=O)C2)cc1OC1CCCC1 (centres unmarked) [Rolipram] |  |  |  |  | % reduction of ΔOD690/min (Male NMRI mice [5]): 65%; % reduction of ΔOD690/min (Male NMRI mice [6]; PDE4 inhibitor 10 mg/kg p.o., curative): 82%; % reduction of ΔOD690/min (Male NMRI mice [6]; PDE4 inhibitor 30 mg/kg p.o., preventive): 90%
11 | CCCc1nn(C)c2c(=O)[nH]c(-c3cc(S(=O)(=O)N4CCN(C)CC4)ccc3OCC)nc12 [sildenafil] |  |  |  |  | protection from NSAID-induced blood loss (Male NMRI mice [6]; diclofenac 10-100 mg/kg p.o. t=0 h, sildenafil 3-100 mg/kg p.o. t=-48 h to +7 h): no protection
